In patent US9944602B2, “Piperidinone herbicides” (E. I. DU PONT DE NEMOURS AND COMPANY, priority 2014, dated 2018):

What was measured:
Type in all cases: in vivo
[1] = system: barnyardgrass (Echinochloa crus-galli); experiment: Test B flooded paddy test barnyardgrass; conditions: Echinochloa crus-galli, Table B, Flood, 250 g ai/ha, scale 0 to 100, read-out: Plant response rating
Procedure, shortened: (§1)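 Plants at 2-leaf stage in pots flooded 3 cm above soil; compounds applied directly into paddy water, depth kept throughout.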

[2] = system: barnyardgrass (Echinochloa crus-galli); experiment: Test A preemergence barnyardgrass; conditions: Echinochloa crus-galli, pre-emergence, 240 h, 0 to 100 scale, 0 no effect, 100 complete control, read-out: Barnyardgrass plant response rating; for pest or weed control at 125 g/ha: 125 g ai/ha; for pest or weed control at 500 g/ha: 500 g ai/ha
Procedure, shortened: (§2)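 Injury was scored by eye on a 0 to 100 scale after about 10 days in the greenhouse, with 100 meaning complete control. Preemergence treatment was a directed spray onto soil over seeds; postemergence treatment went onto one- to two-leaf plants 2–10 cm tall.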

[3] = system: foxtail, giant (giant foxtail, Setaria faberii); experiment: Test A preemergence foxtail, giant; conditions: Setaria faberi, pre-emergence, 240 h, 0 to 100 scale, 0 no effect, 100 complete control, read-out: Foxtail, Giant plant response rating; for pest or weed control at 125 g/ha: 125 g ai/ha; for pest or weed control at 500 g/ha: 500 g ai/ha
Procedure, shortened: as §2

[4] = system: sedge, umbrella (small-flower umbrella sedge, Cyperus difformis); experiment: Test B flooded paddy test sedge, umbrella; conditions: Cyperus difformis, Table B, Flood, 250 g ai/ha, scale 0 to 100, read-out: Plant response rating
Procedure, shortened: as §1

[5] = system: ryegrass, Italian (Italian ryegrass, Lolium multiflorum); experiment: Test A postemergence ryegrass, Italian; conditions: Lolium multiflorum, post-emergence, 240 h, 0 to 100 scale, 0 is no effect, 100 is complete control, read-out: Plant response rating, Ryegrass, Italian; for pest or weed control at 125 g/ha: 125 g ai/ha; for pest or weed control at 500 g/ha: 500 g ai/ha
Procedure, shortened: as §2

[6] = system: ragweed (common ragweed, Ambrosia elatior); experiment: Test A preemergence ragweed; conditions: Ambrosia artemisiifolia, pre-emergence, 240 h, 0 to 100 scale, 0 no effect, 100 complete control, read-out: Ragweed plant response rating; for pest or weed control at 125 g/ha: 125 g ai/ha; for pest or weed control at 500 g/ha: 500 g ai/ha
Procedure, shortened: as §2

[7] = system: rice (Oryza sativa); experiment: Test B flooded paddy test rice; conditions: Oryza sativa, Table B, Flood, 250 g ai/ha, scale 0 to 100, read-out: Plant response rating
Procedure, shortened: as §1

[8] = system: wheat (Triticum aestivum); experiment: Test A postemergence wheat; conditions: Triticum aestivum, post-emergence, 240 h, 0 to 100 scale, 0 is no effect, 100 is complete control, read-out: Plant response rating, Wheat; for plant injury at 125 g/ha: 125 g ai/ha; for plant injury at 500 g/ha: 500 g ai/ha
Procedure, shortened: as §2

[9] = system: ryegrass, Italian (Italian ryegrass, Lolium multiflorum); experiment: Test A preemergence ryegrass, Italian; conditions: Lolium multiflorum, pre-emergence, 240 h, 0 to 100 scale, 0 no effect, 100 complete control, read-out: Ryegrass, Italian plant response rating; for pest or weed control at 125 g/ha: 125 g ai/ha; for pest or weed control at 500 g/ha: 500 g ai/ha
Procedure, shortened: as §2

[10] = system: kochia (Kochia scoparia); experiment: Test A postemergence kochia; conditions: Bassia scoparia, post-emergence, 240 h, 0 to 100 scale, 0 is no effect, 100 is complete control, read-out: Plant response rating, Kochia; for pest or weed control at 125 g/ha: 125 g ai/ha; for pest or weed control at 500 g/ha: 500 g ai/ha
Procedure, shortened: as §2

[11] = system: pigweed (Amaranthus retroflexus); experiment: Test A preemergence pigweed; conditions: Amaranthus retroflexus, pre-emergence, 240 h, 0 to 100 scale, 0 no effect, 100 complete control, read-out: Pigweed plant response rating; for pest or weed control at 125 g/ha: 125 g ai/ha; for pest or weed control at 500 g/ha: 500 g ai/ha
Procedure, shortened: as §2

[12] = system: ragweed (common ragweed, Ambrosia elatior); experiment: Test A postemergence ragweed; conditions: Ambrosia artemisiifolia, post-emergence, 240 h, 0 to 100 scale, 0 is no effect, 100 is complete control, read-out: Plant response rating, Ragweed; for pest or weed control at 125 g/ha: 125 g ai/ha; for pest or weed control at 500 g/ha: 500 g ai/ha
Procedure, shortened: as §2

[13] = system: galium (catchweed bedstraw, Galium aparine); experiment: Test A postemergence galium; conditions: Galium, post-emergence, 240 h, 0 to 100 scale, 0 is no effect, 100 is complete control, read-out: Plant response rating, Galium; for pest or weed control at 125 g/ha: 125 g ai/ha; for pest or weed control at 500 g/ha: 500 g ai/ha
Procedure, shortened: as §2

[14] = system: ducksalad (Heteranthera limosa); experiment: Test B flooded paddy test ducksalad; conditions: Heteranthera limosa, Table B, Flood, 250 g ai/ha, scale 0 to 100, read-out: Plant response rating
Procedure, shortened: as §1

[15] = system: foxtail, giant (giant foxtail, Setaria faberii); experiment: Test A postemergence foxtail, giant; conditions: Setaria faberi, post-emergence, 240 h, 0 to 100 scale, 0 is no effect, 100 is complete control, read-out: Plant response rating, Foxtail, Giant; for pest or weed control at 125 g/ha: 125 g ai/ha; for pest or weed control at 500 g/ha: 500 g ai/ha
Procedure, shortened: as §2

[16] = system: pigweed (Amaranthus retroflexus); experiment: Test A postemergence pigweed; conditions: Amaranthus retroflexus, post-emergence, 240 h, 0 to 100 scale, 0 is no effect, 100 is complete control, read-out: Plant response rating, Pigweed; for pest or weed control at 125 g/ha: 125 g ai/ha; for pest or weed control at 500 g/ha: 500 g ai/ha
Procedure, shortened: as §2

[17] = system: kochia (Kochia scoparia); experiment: Test A preemergence kochia; conditions: Bassia scoparia, pre-emergence, 240 h, 0 to 100 scale, 0 no effect, 100 complete control, read-out: Kochia plant response rating; for pest or weed control at 125 g/ha: 125 g ai/ha; for pest or weed control at 500 g/ha: 500 g ai/ha
Procedure, shortened: as §2

[18] = system: barnyardgrass (Echinochloa crus-galli); experiment: Test A postemergence barnyardgrass; conditions: Echinochloa crus-galli, post-emergence, 240 h, 0 to 100 scale, 0 is no effect, 100 is complete control, read-out: Plant response rating, Barnyardgrass; for pest or weed control at 125 g/ha: 125 g ai/ha; for pest or weed control at 500 g/ha: 500 g ai/ha
Procedure, shortened: as §2

[19] = system: corn (Zea mays); experiment: Test A postemergence corn; conditions: Zea mays, post-emergence, 240 h, 0 to 100 scale, 0 is no effect, 100 is complete control; for Corn plant response rating (crop injury, 0 = no effect, 100 = complete kill) at 125 g/ha: 125 g ai/ha; for Corn plant response rating (crop injury, 0 = no effect, 100 = complete kill) at 500 g/ha: 500 g ai/ha
Procedure, shortened: as §2

[20] = system: blackgrass (Alopecurus myosuroides); experiment: Test A postemergence blackgrass; conditions: Alopecurus myosuroides, post-emergence, 240 h, 0 to 100 scale, 0 is no effect, 100 is complete control, read-out: Plant response rating, Blackgrass; for pest or weed control at 125 g/ha: 125 g ai/ha; for pest or weed control at 500 g/ha: 500 g ai/ha
Procedure, shortened: as §2

| SMILES | pest or weed control at 250 g/ha [1] | pest or weed control at 125 g/ha [2] | pest or weed control at 500 g/ha [2] | pest or weed control at 125 g/ha [3] | pest or weed control at 500 g/ha [3] | pest or weed control at 250 g/ha [4] | pest or weed control at 125 g/ha [5] | pest or weed control at 500 g/ha [5] | pest or weed control at 125 g/ha [6] | pest or weed control at 500 g/ha [6] | plant injury at 250 g/ha [7] | plant injury at 125 g/ha [8] | plant injury at 500 g/ha [8] | pest or weed control at 125 g/ha [9] | pest or weed control at 500 g/ha [9] | pest or weed control at 125 g/ha [10] | pest or weed control at 500 g/ha [10] | pest or weed control at 125 g/ha [11] | pest or weed control at 500 g/ha [11] | pest or weed control at 125 g/ha [12] | other results |
| --- | --- | --- | --- | --- | --- | --- | --- | --- | --- | --- | --- | --- | --- | --- | --- | --- | --- | --- | --- | --- | --- |
| O=C1NCCC(c2cccc(C(F)(F)F)c2)C1C(=O)Nc1ccc(F)c(F)c1F (stereo not drawn) [Compound 30, 2-oxo-4-[3-(trifluoromethyl)phenyl]-N-(2,3,4-trifluorophenyl)-3-piperidinecarboxamide] | 50% | 90% | 90% | 90% | 90% | 0% | 0% | 20% | 0% | 0% | 20% | 30% | 60% | 20% | 50% | 0% | 0% | 0% | 0% | 0% | pest or weed control at 500 g/ha [12]: 0%; pest or weed control at 125 g/ha [13]: 0%; pest or weed control at 500 g/ha [13]: 0%; pest or weed control at 250 g/ha [14]: 50%; pest or weed control at 125 g/ha [15]: 80%; pest or weed control at 500 g/ha [15]: 80%; pest or weed control at 125 g/ha [16]: 0%; pest or weed control at 500 g/ha [16]: 0%; pest or weed control at 125 g/ha [17]: 0%; pest or weed control at 500 g/ha [17]: 0%; pest or weed control at 125 g/ha [18]: 80%; pest or weed control at 500 g/ha [18]: 80%; Corn plant response rating (crop injury, 0 = no effect, 100 = complete kill) at 125 g/ha [19]: 30%; Corn plant response rating (crop injury, 0 = no effect, 100 = complete kill) at 500 g/ha [19]: 70%; pest or weed control at 125 g/ha [20]: 70%; pest or weed control at 500 g/ha [20]: 80% |
| CN1CC[C@H](c2ccc(F)cc2)[C@@H](C(=O)Nc2ccccc2C(F)(F)F)C1=O [Compound 53, (3S,4S)-4-(4-fluorophenyl)-1-methyl-2-oxo-N-[2-(trifluoromethyl)phenyl]-3-piperidinecarboxamide] | 0% | 0% | 80% | 0% | 90% | 0% | 0% | 0% | 0% | 0% | 0% | 0% | 20% | 0% | 0% | 0% | 0% | 0% | 50% | 0% | pest or weed control at 500 g/ha [12]: 0%; pest or weed control at 125 g/ha [13]: 0%; pest or weed control at 500 g/ha [13]: 0%; pest or weed control at 250 g/ha [14]: 0%; pest or weed control at 125 g/ha [15]: 0%; pest or weed control at 500 g/ha [15]: 20%; pest or weed control at 125 g/ha [16]: 0%; pest or weed control at 500 g/ha [16]: 0%; pest or weed control at 125 g/ha [17]: 0%; pest or weed control at 500 g/ha [17]: 0%; pest or weed control at 125 g/ha [18]: 0%; pest or weed control at 500 g/ha [18]: 0%; Corn plant response rating (crop injury, 0 = no effect, 100 = complete kill) at 125 g/ha [19]: 0%; Corn plant response rating (crop injury, 0 = no effect, 100 = complete kill) at 500 g/ha [19]: 20%; pest or weed control at 125 g/ha [20]: 0%; pest or weed control at 500 g/ha [20]: 20% |
